Assay results: ChEMBL document CHEMBL4311962, “Benzofuran-isatin hybrids and their in vitro anti-mycobacterial activities against multi-drug resistant Mycobacterium tuberculosis” (Eur J Med Chem, 2019)
Values after ≈ are worked out from the molar mass of the structure shown.

Key:
[1] = system: Mycobacterium tuberculosis; experiment: Antimycobacterial activity against multidrug (INH and RIF)-resistant Mycobacterium tuberculosis clinical isolate 1 assessed as inhibition of bacterial growth incubated for 7 days by rapid direct susceptibility test technique; type: functional; conditions: 168 h
[2] = system: Mycobacterium tuberculosis; experiment: Antimycobacterial activity against multidrug (ethambutol, INH and RIF)-resistant Mycobacterium tuberculosis clinical isolate 2 assessed as inhibition of bacterial growth incubated for 7 days by rapid direct susceptibility test technique; type: functional; conditions: 168 h
[3] = Selectivity index, ratio of CC50 for CHO cells to MIC for multidrug (INH and RIF)-resistant Mycobacterium tuberculosis clinical isolate 1; type: toxicity; conditions: hamster, read-out: Selectivity Index
[4] = system: Mycobacterium tuberculosis; experiment: Potency index, ratio of ciprofloxacin MIC to compound MIC for multidrug (INH and RIF)-resistant Mycobacterium tuberculosis clinical isolate 1 incubated for 7 days by rapid direct susceptibility test technique; type: functional
[5] = system: Mycobacterium tuberculosis; experiment: Potency index, ratio of ciprofloxacin MIC to compound MIC for multidrug (ethambutol, INH and RIF)-resistant Mycobacterium tuberculosis clinical isolate 2 incubated for 7 days by rapid direct susceptibility test technique; type: functional
[6] = system: Mycobacterium tuberculosis; experiment: Potency index, ratio of isoniazid MIC to compound MIC for multidrug (INH and RIF)-resistant Mycobacterium tuberculosis clinical isolate 1 incubated for 7 days by rapid direct susceptibility test technique; type: functional
[7] = system: Mycobacterium tuberculosis; experiment: Potency index, ratio of isoniazid MIC to compound MIC for multidrug (ethambutol, INH and RIF)-resistant Mycobacterium tuberculosis clinical isolate 2 incubated for 7 days by rapid direct susceptibility test technique; type: functional
[8] = system: Mycobacterium tuberculosis; experiment: Potency index, ratio of rifampicin MIC to compound MIC for multidrug (INH and RIF)-resistant Mycobacterium tuberculosis clinical isolate 1 incubated for 7 days by rapid direct susceptibility test technique; type: functional
[9] = system: Mycobacterium tuberculosis; experiment: Potency index, ratio of rifampicin MIC to compound MIC for multidrug (ethambutol, INH and RIF)-resistant Mycobacterium tuberculosis clinical isolate 2 incubated for 7 days by rapid direct susceptibility test technique; type: functional

CCOC(=O)c1c(-c2ccc(F)cc2)oc2ccc(OCCCCCCN3C(=O)C(=O)c4cc(OC)ccc43)cc12
MIC [1]: 2 µg/mL (≈ 3.57 µM) | MIC [2]: 2 µg/mL (≈ 3.57 µM) | selectivity ratio [3]: 128

CCOC(=O)c1c(-c2ccc(F)cc2)oc2ccc(OCCCN3C(=O)/C(=N/O)c4ccccc43)cc12
MIC [1]: 8 µg/mL (≈ 15.9 µM) | MIC [2]: 4 µg/mL (≈ 7.96 µM) | selectivity ratio [3]: 32

CCOC(=O)c1c(-c2ccc(F)cc2)oc2ccc(OCCCN3C(=O)C(=O)c4ccccc43)cc12
MIC [1]: 1 µg/mL (≈ 2.05 µM) | MIC [2]: 2 µg/mL (≈ 4.1 µM) | selectivity ratio [3]: 256

CCOC(=O)c1c(-c2ccc(F)cc2)oc2ccc(OCCN3C(=O)C(=O)c4cc(F)ccc43)cc12
MIC [1]: 2 µg/mL (≈ 4.07 µM) | MIC [2]: 2 µg/mL (≈ 4.07 µM) | selectivity ratio [3]: 32

CCOC(=O)c1c(-c2ccccc2)oc2ccc(OCCCN3C(=O)C(=O)c4cc(OC)ccc43)cc12
MIC [1]: 8 µg/mL (≈ 16 µM) | MIC [2]: 16 µg/mL (≈ 32 µM) | selectivity ratio [3]: 64

CCOC(=O)c1c(-c2ccc(F)cc2)oc2ccc(OCCCCCCN3C(=O)/C(=N/OC)c4ccccc43)cc12
MIC [1]: 0.5 µg/mL (≈ 0.895 µM) | MIC [2]: 0.25 µg/mL (≈ 0.448 µM) | selectivity ratio [3]: 258

CCO/N=C1\C(=O)N(CCCCCCOc2ccc3oc(-c4ccc(F)cc4)c(C(=O)OCC)c3c2)c2ccc(OC)cc21
MIC [1]: 2 µg/mL (≈ 3.32 µM) | MIC [2]: 1 µg/mL (≈ 1.66 µM) | selectivity ratio [3]: 128

CCOC(=O)c1c(-c2ccccc2)oc2ccc(OCCCN3C(=O)/C(=N/O)c4ccccc43)cc12
MIC [1]: 8 µg/mL (≈ 16.5 µM) | MIC [2]: 16 µg/mL (≈ 33 µM) | selectivity ratio [3]: 64

CCOC(=O)c1c(-c2ccccc2)oc2ccc(OCCN3C(=O)C(=O)c4cc(F)ccc43)cc12
MIC [1]: 4 µg/mL (≈ 8.45 µM) | MIC [2]: 2 µg/mL (≈ 4.22 µM) | selectivity ratio [3]: 16

CCOC(=O)c1c(-c2ccc(F)cc2)oc2ccc(OCCN3C(=O)C(=O)c4cc(OC)ccc43)cc12
MIC [1]: 8 µg/mL (≈ 15.9 µM) | MIC [2]: 4 µg/mL (≈ 7.94 µM) | selectivity ratio [3]: 64

CCOC(=O)c1c(-c2ccc(OC)cc2)oc2ccc(OCCCN3C(=O)C(=O)c4cc(F)ccc43)cc12
MIC [1]: 2 µg/mL (≈ 3.86 µM) | MIC [2]: 2 µg/mL (≈ 3.86 µM) | selectivity ratio [3]: 32

CCOC(=O)c1c(-c2ccccc2)oc2ccc(OCCCCCCN3C(=O)C(=O)c4ccccc43)cc12
MIC [1]: 1 µg/mL (≈ 1.95 µM) | MIC [2]: 2 µg/mL (≈ 3.91 µM) | selectivity ratio [3]: 128

NNC(=O)c1ccncc1 [ISONIAZID]
MIC [1]: > 128 µg/mL | MIC [2]: > 128 µg/mL | selectivity ratio [3]: < 2

CCOC(=O)c1c(-c2ccc(OC)cc2)oc2ccc(OCCCCN3C(=O)C(=O)c4ccccc43)cc12
MIC [1]: 2 µg/mL (≈ 3.89 µM) | MIC [2]: 4 µg/mL (≈ 7.79 µM) | selectivity ratio [3]: 128

CCOC(=O)c1c(-c2ccccc2)oc2ccc(OCCCN3C(=O)/C(=N/O)c4cc(OC)ccc43)cc12
MIC [1]: 16 µg/mL (≈ 31.1 µM) | MIC [2]: 16 µg/mL (≈ 31.1 µM) | selectivity ratio [3]: 32

CCOC(=O)c1c(-c2ccc(OC)cc2)oc2ccc(OCCCCCN3C(=O)C(=O)c4ccccc43)cc12
MIC [1]: 2 µg/mL (≈ 3.79 µM) | MIC [2]: 1 µg/mL (≈ 1.9 µM) | selectivity ratio [3]: 64

CCOC(=O)c1c(-c2ccc(OC)cc2)oc2ccc(OCCCCCCN3C(=O)/C(=N/NC(N)=S)c4cc(F)ccc43)cc12
MIC [1]: 0.125 µg/mL (≈ 0.198 µM) | MIC [2]: 0.25 µg/mL (≈ 0.395 µM) | selectivity ratio [3]: 1024 | Ratio [4]: 8 - 16 | Ratio [5]: 8 - 16 | Ratio [6]: >=512 | Ratio [7]: >=512 | Ratio [8]: >=512 | Ratio [9]: >=512

CCOC(=O)c1c(-c2ccc(F)cc2)oc2ccc(OCCCCCCN3C(=O)/C(=N\O)c4cc(OC)ccc43)cc12
MIC [1]: 4 µg/mL (≈ 6.96 µM) | MIC [2]: 1 µg/mL (≈ 1.74 µM) | selectivity ratio [3]: 128

CNC(=O)c1c(-c2ccc(O)cc2)oc2ccc(O)c(CN3CCCCC3)c12
MIC [1]: < 0.06 µg/mL | MIC [2]: < 0.06 µg/mL | selectivity ratio [3]: > 16400

CCOC(=O)c1c(-c2ccccc2)oc2ccc(OCCCN3C(=O)C(=O)c4ccccc43)cc12
MIC [1]: 4 µg/mL (≈ 8.52 µM) | MIC [2]: 8 µg/mL (≈ 17 µM) | selectivity ratio [3]: 63

CO[C@H]1/C=C/O[C@@]2(C)Oc3c(C)c(O)c4c(O)c(c(/C=N/N5CCN(C)CC5)c(O)c4c3C2=O)NC(=O)/C(C)=C\C=C\[C@H](C)[C@H](O)[C@@H](C)[C@@H](O)[C@@H](C)[C@H](OC(C)=O)[C@@H]1C [RIFAMPIN]
MIC [1]: 64 µg/mL (≈ 77.8 µM) | MIC [2]: > 128 µg/mL | selectivity ratio [3]: 8

CCOC(=O)c1c(-c2ccc(F)cc2)oc2ccc(OCCN3C(=O)C(=O)c4ccccc43)cc12
MIC [1]: 4 µg/mL (≈ 8.45 µM) | MIC [2]: 4 µg/mL (≈ 8.45 µM) | selectivity ratio [3]: 32
